Results as given in patent US11771086B2, “Pest control composition including novel iminopyridine derivative” (priority 2012, dated 2023).

Key:
Type in all cases: in vivo
Naranga aenescens = system: Naranga aenescens
Description: After standing for 3 days, first instar larvae were released thereto. […] The test was performed in duplicate.
(§1) Method for Judging Synergistic Effects

[1] = system: Nilaparvata lugens susceptible species (highly susceptible to imidacloprid); assay: Reference Test Example 19 Pest control test of Nilaparvata lugens, imidacloprid susceptible species (soil drench); details: for Insecticidal effects against Nilaparvata lugens (death rate %), Susceptible population: soil drench, six days
Description: Three days after the treatment, ten second instar larvae of Nilaparvata lugens, which had been collected outdoors and proliferated indoors, were each released to the rice seedling. […] Test in duplicate.
Furthermore, for comparison, the test against a species of Nilaparvata lugens which is highly susceptible to imidacloprid was performed by the same method as described above, and the results thereof are shown in Table 45. […] Meanwhile, the death rates of imidacloprid at 0.05 mg/seedling were (susceptible species) 100%, (resistant population I) 38% and (resistant population II) 69%, and the insecticidal effect thereof was also low even at a high dose. From the above results, it became obvious that Compound P212 and Compound 1-20 have high insecticidal effects even against Nilaparvata lugens resistance against imidacloprid.
Further, for the origin of test pests, bugs collected outdoors from the Kumamoto prefecture (I) in 2007 and from the Fukuoka prefecture (II) in 2005 as resistant population of Nilaparvata lugens, and bugs collected from the Kagoshima prefecture and then successively reared indoors for a long time as the imidacloprid susceptible population of Nilaparvata lugens were used.

Spodoptera litura = assay: whole plant or invertebrate; details: Spodoptera litura
Description: After an air drying process, third instar larvae were released thereto. […] The test was performed in duplicate.
as §1

Nephotettix cincticeps = assay: Reference Test Example 7 Pest control test of Nephotettix cincticeps (foliar treatment, single agent); details: 96 h
From the text: (§2) After an air drying process, second instar larvae were released thereto. […] Test in duplicate.

Sogatella furcifera = assay: Reference Test Example 6 Pest control test of Sogatella furcifera (foliar treatment, single agent); details: 96 h
From the text: as §2

[2] = system: Trialeurodes vaporariorum; assay: Reference Test Example 8 Pest control test of Trialeurodes vaporariorum (leaf disk spray on eggs); details: foliar
From the text: Adult greenhouse whiteflies were released to a cucumber in pot culture and allowed to lay eggs overnight. […] Test in duplicate. Mortality of larvae (%)={(number of eggs laid−number of survived larvae)/number of eggs laid)}×100

Callosobruchus chinensis = system: Callosobruchus chinensis
Description: A compound of Formula (I) and the insecticide indicated below, prepared in predetermined concentrations using acetone, were separately topically applied to the back of the same adult Callosobruchus chinensis. […] The test was performed in duplicate. Insect mortality (%)={number of dead insects/(number of survived insects+number of dead insects)}×100
(A: 100−(insect mortality for treatment with only Compound P212)
B: 100−(insect mortality for treatment with only the insecticide fipronil or imidacloprid))
as §1

Plautia crossota stali = assay: Reference Test Example 11 Pest control test of Plautia crossota stali (sprayed young apple fruit); details: foliar, 144 h
From the text: After an air drying process, the young fruit was placed into a plastic cup, and two adults of Plautia crossota stali were released thereto. […] Mortality of adults (%)={number of dead adults/(number of survived adults+number of dead adults)}×100

## O=C(N=c1ccccn1Cc1ccc(Cl)nc1)C(F)(F)F [Compound P212, N-[1-((6-chloropyridin-3-yl)methyl)pyridin-2(1H)-ylidene]-2,2,2-trifluoroacetamide]
Naranga aenescens; Naranga aenescens, single agent 0.01 mg/seedling (other component 0)
  Theoretical value by Colby's equation: 60%
Naranga aenescens; single agent 0.01 mg/seedling, soil irrigation, five days after release
  Mortality of single agent against Naranga aenescens: 60%
[1]; susceptible species, 0.005 mg/seedling, six days after the release
  death rates of larvae: 100%
[1]; throughput 0.005 mg/seedling
  Insecticidal effects against Nilaparvata lugens (death rate %), Susceptible population: 100%
[1]; throughput 0.05 mg/seedling
  Insecticidal effects against Nilaparvata lugens (death rate %), Susceptible population: 100%
Spodoptera litura; foliar, 72 h, read-out: Mortality of single agent against Spodoptera litura, single agent 50 ppm, cabbage leaf disk spray, three days
  mortality at 50 ppm: 10%
Spodoptera litura; single agent 50 ppm (other component 0)
  Theoretical value by Colby's equation: 10%
Nephotettix cincticeps
  mortality at 100 ppm: ≥ 80%
Sogatella furcifera
  mortality at 100 ppm: ≥ 80%
[2]
  mortality at 100 ppm: ≥ 80%
Callosobruchus chinensis; Callosobruchus chinensis, single agent 0.2 ng/head (other component 0)
  Theoretical value by Colby's equation: 20%
Callosobruchus chinensis; single agent 0.2 ng/head, topical, one day
  Mortality of single agent against Callosobruchus chinensis: 20%
Plautia crossota stali
  mortality at 50 ppm: ≥ 60%
